According to article PMC7824787, “Design, Synthesis and In Vitro Investigation of Novel Basic Celastrol Carboxamides as Bio-Inspired Leishmanicidal Agents Endowed with Inhibitory Activity against Leishmania Hsp90” (Biomolecules, 2021):
Where two headings read alike, the source gives them in different places.

Columns and labels:
THP-1 = test: Cytotoxicity on THP-1 (MTT); type: cell-based, human; details: Homo sapiens, THP-1; PMA-differentiated, 72 h, MTT; read-out: Healthy Cell Lines IC50, THP-1
Experimental: (§1) Cytotoxicity was evaluated on human microvascular endothelial cells (HMEC-1, provided by the Centers for Disease Control, Atlanta, GA, USA), on immortalized mouse C57Bl/6 bone marrow derived macrophages (BMDM) from wild type lineage (generated in the laboratories of Drs. Douglas Golenbock and Kate Fitzgerald, University of Massachusetts, Worcester, MA, USA) and on a human acute monocytic leukaemia cell line (THP-1).
(§2) HMEC-1 were maintained in MCDB 131 medium (Invitrogen, Milan, Italy) supplemented with 10% fetal calf serum (HyClone), 10 ng/mL of epidermal growth factor, 1 μg/mL of hydrocortisone, 2 mM glutamine and 20 mM HEPES buffer, at 37 °C in 5% CO2. BMDM were maintained in DMEM (Euroclone) medium supplemented with 10% fetal bovine serum (HyClone, Celbio, Milan, Italy), 2 mM glutamine, and 25 mM of HEPES buffer solution (Euroclone). THP-1 were maintained in RPMI supplemented with 10% heat-inactivated FCS, 50 µM 2-mercaptoethanol, 10 µM sodium pyruvate, 20 mM HEPES, and 2 mM glutamine. In order to achieve differentiation into macrophages, cells were treated with 10 ng/mL phorbol myristate acetate (PMA) for 72 h.
(§3) For the cytotoxicity assay, cells were seeded in 96 well flat bottom tissue culture clusters (Costar, New York, NY, USA) at the following concentrations: HMEC 10^5 cell/mL, BMDM at 10^6 cell/mL, THP1 at 5 × 10^5 cell/mL. After 24 h, cells were treated with serial dilutions of test compounds in a final volume of 200 µL/well. Cell proliferation was evaluated after 72 h using the MTT assay.
(§4) The absorbances were measured with a microplate spectrophotometer (Synergy 4-Biotek) at a test wavelength of 550 nm and a reference wavelength of 650 nm. The results are expressed as IC50 as the concentration inhibiting 50% of cell growth. Each IC50 value is the mean and standard deviation of at least three separate experiments performed in duplicate.

L. tropica promastigotes = test: Antileishmanial activity on L. tropica promastigotes (MTT); type: cell-based
Experimental: Promastigote stage of L. infantum (MHOM/TN/80/IPT1, kindly provided by Dr. M. Gramiccia and Dr. T. Di Muccio, ISS, Roma) and L. tropica (MHOM/SY/2012/ISS3130) were cultured in RPMI 1640 medium (EuroClone) supplemented with 15% heat-inactivated fetal calf serum (EuroClone, Milan, Italy), 20 mM HEPES, and 2 mM L-glutamine at 23 °C. The MTT (3-[4.5-dimethylthiazol-2-yl]-2.5-diphenyltetrazolium bromide) method was used to estimate the 50% inhibitory concentration (IC50), with some modifications. Compounds were dissolved in DMSO and then diluted with medium to achieve the required concentrations. Test compounds were placed in 96 wells round bottom microplates and seven serial dilutions made. Amphotericin B was used as the reference antileishmanial drug. Parasites were diluted in complete medium to 5 × 10^6 parasites/mL and 100 μL of the suspension was seeded into the plates and incubated at 23 °C for 72 h. Then 20 μL of MTT solution (5 mg/mL) was added into each well, after 3 h the plates were centrifuged, the supernatants discarded and the resulting pellets dissolved in 100 μL of lysing buffer consisting of 20% (w/v) of a solution of SDS (Sigma), 40% of N,N-dimethylformamide (Merck) in H2O. The absorbance of the obtained solutions was measured at a wavelength of 550 nm with a reference at 650 nm with a microplate spectrophotometer (Synergy 4-Biotek, Milan, Italy) and analyzed with the Gen5® software for data processing.
The results are expressed as IC50, the dose of compound that is necessary to inhibit cell growth by 50%; each IC50 value is the mean ± standard deviation of at least three separate experiments performed in duplicate.

HMEC-1 = test: Cytotoxicity on HMEC-1 (MTT); type: cell-based, human; details: Homo sapiens, read-out: Healthy Cell Lines IC50, HMEC-1
Experimental: as §1, §2, §3, §4

BMDM = test: Cytotoxicity on BMDM (MTT); type: cell-based, mouse; details: Mus musculus, BMDM; 72 h, MTT; read-out: Healthy Cell Lines IC50, BMDM
Experimental: as §1, §2, §3, §4

[1] = Leishmania tropica, 72 h, 23 °C, MTT, read-out: Leishmania Promastigotes IC50, L. tropica
[2] = 72 h, 23 °C, MTT; read-out: Leishmania Promastigotes IC50, L. tropica

SMILES | IC50 (THP-1) | IC50 (L. tropica promastigotes; Leishmania tropica; 72 h, 23 °C, MTT; read-out: Leishmania Promastigotes IC50, L. tropica) | IC50 (HMEC-1; HMEC-1, 72 h) | IC50 (BMDM) | IC50 (L. tropica promastigotes; [1]) | IC50 (HMEC-1; HMEC-1, 72 h, MTT) | IC50 (L. tropica promastigotes; [2])
CC1=C(O)C(=O)C=C2C1=CC=C1[C@@]2(C)CC[C@@]2(C)[C@@H]3C[C@](C)(C(=O)O)CC[C@]3(C)CC[C@]12C [CE, celastrol] | 900 ± 300 nM | 490 ± 170 nM | 380 ± 80 nM | 1760 ± 430 nM | – | – | –
CC1=C(O)C(=O)C=C2C1=CC=C1[C@@]2(C)CC[C@@]2(C)[C@@H]3C[C@](C)(C(=O)NCC45CCCN4CCC5)CC[C@]3(C)CC[C@]12C [compound 5, (2R,4aS,6aS,12bR,14aS,14bR)-N-((hexahydro-1H-pyrrolizin-7a-yl)methyl)-10-hydroxy-2,4a,6a,9,12b,14a-hexamethyl-11-oxo-1,2,3,4,4a,5,6,6a,11,12b,13,14,14a,14b-tetradecahydropicene-2-carboxamide] | 1880 ± 340 nM | – | – | 2680 ± 810 nM | 120 ± 50 nM | 120 ± 30 nM | –
CC1=C(O)C(=O)C=C2C1=CC=C1[C@@]2(C)CC[C@@]2(C)[C@@H]3C[C@](C)(C(=O)NCCNc4ccnc5cc(Cl)ccc45)CC[C@]3(C)CC[C@]12C [compound 6, (2R,4aS,6aS,12bR,14aS,14bR)-N-(2-((7-chloroquinolin-4-yl)amino)ethyl)-10-hydroxy-2,4a,6a,9,12b,14a-hexamethyl-11-oxo-1,2,3,4,4a,5,6,6a,11,12b,13,14,14a,14b-tetradecahydropicene-2-carboxamide] | 850 ± 240 nM | – | – | 2150 ± 20 nM | 140 ± 30 nM | 400 ± 30 nM | –
CC1=C(O)C(=O)C=C2C1=CC=C1[C@@]2(C)CC[C@@]2(C)[C@@H]3C[C@](C)(C(=O)NCCSS(C)(=O)=O)CC[C@]3(C)CC[C@]12C [compound 9, S-(2-((2R,4aS,6aS,12bR,14aS,14bR)-10-hydroxy-2,4a,6a,9,12b,14a-hexamethyl-11-oxo-1,2,3,4,4a,5,6,6a,11,12b,13,14,14a,14b-tetradecahydropicene-2-carboxamido)ethyl) methanesulfonothioate] | 3280 ± 900 nM | – | – | 13000 ± 2480 nM | 2000 to 4000 nM | 4070 ± 50 nM | 3070 ± 1360 nM
CC1=C(O)C(=O)C=C2C1=CC=C1[C@@]2(C)CC[C@@]2(C)[C@@H]3C[C@](C)(C(=O)NCCN4CCCC4)CC[C@]3(C)CC[C@]12C [compound 3, (2R,4aS,6aS,12bR,14aS,14bR)-10-hydroxy-2,4a,6a,9,12b,14a-hexamethyl-11-oxo-N-(2-(pyrrolidin-1-yl)ethyl)-1,2,3,4,4a,5,6,6a,11,12b,13,14,14a,14b-tetradecahydropicene-2-carboxamide] | 2790 ± 440 nM | – | – | 4530 ± 50 nM | < 100 nM | 530 ± 170 nM | 80 ± 40 nM
CC1=C(O)C(=O)C=C2C1=CC=C1[C@@]2(C)CC[C@@]2(C)[C@@H]3C[C@](C)(C(=O)NCCN4CCCCC4)CC[C@]3(C)CC[C@]12C [compound 1, (2R,4aS,6aS,12bR,14aS,14bR)-10-hydroxy-2,4a,6a,9,12b,14a-hexamethyl-11-oxo-N-(2-(piperidin-1-yl)ethyl)-1,2,3,4,4a,5,6,6a,11,12b,13,14,14a,14b-tetradecahydropicene-2-carboxamide] | 2080 ± 240 nM | – | – | 3610 ± 380 nM | 90 ± 30 nM | 510 ± 80 nM | –
